Data reported in patent US20250312468A1, “ANTI-PROTAC ANTIBODIES AND COMPLEXES” (Merck Patent GmbH, priority 2021, published 2025).

What was measured:
[1] = biological target: BRD4 (Homo sapiens, UniProt O60885); assay: BRD4 Western blot degradation assay in MV411 cells; assay type: cell-based; design: endogenous in cells; host or cells: MV411; details: CD33-positive MV411 cells, 24 h, complexes (1:1)
Procedure: Therefore, CD33-positive MV411 cells were treated with CD33xMIC7+GNE987 or DIGxMIC7+GNE987, as non-binding PAX control, at different concentrations and GNE987 alone as control. MV411 cells were cultured in RPMI-1640 medium supplemented with 10% FCS and penicillin-streptomycin. MV411 cells were seeded in 12-well plates at 1 million cells/ml in 2 ml culture medium and cultured overnight in cell incubator at 37° C. and 5% CO2. Complexation was performed as described in chapter 7.4. GNE987 only was preincubated at identical conditions but in absence of antibody. Subsequently, cells were treated by nanodrop dispersion using a Tecan dispenser with either CD33xMIC7+GNE987 (1:1), DIGxMIC7+GNE987 (1:1) or GNE987 in the respective concentration. All conditions were normalized to 0.0005% (v/V) DMSO and 3.0E-5% Tween20. Cells were incubated for 24 h in cell incubator at 37° C. and 5% CO2. […] Protein concentration was determined via Mettler Toledo UV5Nano photometer. […]
After incubation with corresponding HRP-labeled anti-rabbit/mouse secondary antibodies (GE-Healthcare) at 1:10,000 dilution, blots were detected using ECL solution (Advansta) and x-ray films (GE-Healthcare). Results were analyzed with ImageJ software (version 1.53K, NIH). […]

[2] = biological target: MIC2; assay: SPR binding of PROTACs to immobilized antibody MIC2; details: MIC2, 1:1 kinetic binding model
Procedure: The binding affinities of hit antibodies MIC1 and MIC2 to a diverse set of VH032-based PROTACs (FIGS. 8A-8B) was determined by surface plasmon resonance (SPR) in a Biacore T200 instrument. The running buffer consist of PBS, 0.05% Tween-20, 2% DMSO and temperature and flow rate were set to 30° C. and 30 μL/min, respectively. The assay setup is depicted exemplarily in FIG. 7A. CM5 sensor chips were coated with antibody (=ligand; 2500 RU) using standard EDC/NHS chemistry. PROTACs (=analytes) were serially diluted (1 μM-1.9 nM) in running buffer, injected to the instrument in consecutive runs and were captured by the antibody resulting in an increase of the corresponding SPR response. After the association step (300 s), running buffer was injected for 600 s and the PROTAC dissociated from the antibody leading to signal decrease. After each run, residual bound PROTAC was removed from the immobilized antibody by injection of 10 mM glycine/HCl, pH 1.5 for 2×30 s regenerating the antibody for the next association and dissociation cycle. To compensate for matrix effects, the measured SPR response signal was subtracted by the analyte response to an inactivated (EDC/NHS, ethanol amine) reference surface omitting the ligand. Furthermore, a DMSO solvent correction was performed and analyte response was subtracted by the running buffer signal. The corrected response was fitted by a 1:1 kinetic binding model yielding the on- (kon) and off-rate (koff) of the PROTAC, as well as its dissociation constant (KD).

[3] = tested on: NCIN87; assay: CellTiter-Glo cell viability assay (VHH-based PAX); details: NCIN87, PROTAC alone
Procedure: (§1) Several cell viability experiments were performed following the procedure described below: Cells were seeded in different media into white cell culture-treated flat and clear bottom multiwell plates followed by overnight incubation in a humid chamber at 37° C. and 5% CO2. Complexation was performed as described in chapter 7.4.
(§2) The solutions were added to the cells based on the antibody concentration using nanodrop dispension using a Tecan D300e Digital Dispenser and all wells were normalized to the same volume using 0.3% TW20 in PBS pH 7.4 and DMSO to a final solvent concentration of 0.05% DMSO and 0.003% TW20. Incubation was performed at 37° C. at 5% or 10% CO2 dependent on the medium. The assay was developed after 3 days if not otherwise stated using CellTiter-Glo Luminescent Cell Viability Assay as described in the manufacturer's protocol. In brief, the plates were equilibrated to room temperature for 30 minutes. 100 mL CellTiter-Glo Buffer were added to the CellTiter-Glo Substrate Flask and mixed well. 30 μL of the reagent was transferred to each well. After incubation for 3 minutes at room temperature while shaking at 550 rpm, the plate was incubated for another 10 minutes at room temperature. The luminescence was read on an Envision reader from Perkin Elmer. Solvent alone and Bortezomib (1.0E-05 M) served as high control (100% viability) and low control (0% viability), respectively. Raw data were converted into percent cell viability relative to the high and low control, which were set to 100% and 0%, respectively. […] The concentration corresponds to the concentration of PROTACs in the PAX.

[4] = tested on: SW620; assay: CellTiter-Glo cell viability assay (VHH-based PAX); details: SW620, PROTAC alone
Procedure: as §1, §2

[5] = tested on: OVCAR3; assay: CellTiter-Glo cell viability assay (VHH-based PAX); details: OVCAR3, PROTAC alone
Procedure: as §1, §2

[6] = tested on: RAMOS cells; assay: CellTiter-Glo cell viability assay (VHH-based PAX); details: PROTAC alone
Procedure: as §1, §2

[7] = tested on: A549; assay: CellTiter-Glo cell viability assay (VHH-based PAX); details: A549, PROTAC alone
Procedure: as §1, §2

[8] = tested on: SKBR3; assay: CellTiter-Glo cell viability assay (VHH-based PAX); details: SKBR3, PROTAC alone
Procedure: as §1, §2

| Compound | BRD4 degradation (Western blot) [1] | Kd [2] | koff [2] | kon [2] | IC50 [3] | IC50 [4] | IC50 [5] | IC50 [6] | IC50 [7] | IC50 [8] |
| --- | --- | --- | --- | --- | --- | --- | --- | --- | --- | --- |
| Cc1ncsc1-c1ccc(CNC(=O)[C@@H]2C[C@@H](O)CN2C(=O)[C@@H](NC(=O)CCCCCCCCCCNC(=O)c2cc3c(cc2CS(C)(=O)=O)-c2cn(C)c(=O)c4[nH]cc(c24)CN3c2ncc(F)cc2F)C(C)(C)C)cc1 [GNE987] | BRD4 degradation was found | 1.9 nM | NM/4.10E−05 1/s | NM/2.20E+04 1/Ms | 0.53 nM | 0.84 nM | 0.4 nM | 0.058 nM | 1.4 nM | 0.39 nM |
| Cc1ncsc1-c1ccc([C@H](C)NC(=O)[C@@H]2C[C@@H](O)CN2C(=O)[C@@H](NC(=O)COCCCOCCNC(=O)C[C@@H]2N=C(c3ccc(Cl)cc3)c3c(sc(C)c3C)-n3c(C)nnc32)C(C)(C)C)cc1 [ARV771] |  | > 1000 nM |  |  |  |  |  |  |  |  |
